What was measured:
[1] = target: CYP3A4 (Homo sapiens, UniProt P08684); assay: Midazolam 1'-hydroxylation; assay type: in vitro ADME; details: for % inhibition (10 µM) of CYP3A4, class / % inhibition (10 µM) of CYP3A4 / IC50: midazolam hydroxylation; for % inhibition (10 µM) of CYP3A4: average of triplicates ± S.D.; for IC50: read-out: IC50 CYP3A4
[2] = target: CYP2D6 (Homo sapiens, UniProt P10635); assay: Dextromethorphan demethylation; assay type: in vitro ADME
[3] = tested on: tamoxifen α-hydroxylation (α-OH TAM formation) by human liver microsomes; assay: in vitro; details: female, pH 7.4
[4] = tested on: tamoxifen N-demethylation (N-desmethyl TAM formation) by human liver microsomes; assay: in vitro; details: female, pH 7.4
[5] = tested on: tamoxifen 4-hydroxylation (4-OH TAM formation) by human liver microsomes; assay: in vitro; details: female, pH 7.4
[6] = tested on: CYP3A4; details: cited from earlier work

CYP2D6, sequence (P10635 whole entry): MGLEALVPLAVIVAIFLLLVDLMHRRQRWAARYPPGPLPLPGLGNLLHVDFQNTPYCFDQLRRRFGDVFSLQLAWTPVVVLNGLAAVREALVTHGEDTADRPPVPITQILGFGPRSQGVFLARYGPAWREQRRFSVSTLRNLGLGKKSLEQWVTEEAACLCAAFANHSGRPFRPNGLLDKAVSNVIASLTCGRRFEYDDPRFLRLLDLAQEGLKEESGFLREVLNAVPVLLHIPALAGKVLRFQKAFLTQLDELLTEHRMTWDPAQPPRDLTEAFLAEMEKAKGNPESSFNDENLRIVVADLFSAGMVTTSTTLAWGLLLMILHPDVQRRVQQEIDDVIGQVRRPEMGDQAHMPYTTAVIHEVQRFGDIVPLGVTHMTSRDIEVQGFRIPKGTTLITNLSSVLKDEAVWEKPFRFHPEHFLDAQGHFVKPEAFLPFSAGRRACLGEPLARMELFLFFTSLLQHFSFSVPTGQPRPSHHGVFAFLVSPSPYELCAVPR
CYP3A4 (Homo sapiens, UniProt P08684), sequence (P08684 whole entry): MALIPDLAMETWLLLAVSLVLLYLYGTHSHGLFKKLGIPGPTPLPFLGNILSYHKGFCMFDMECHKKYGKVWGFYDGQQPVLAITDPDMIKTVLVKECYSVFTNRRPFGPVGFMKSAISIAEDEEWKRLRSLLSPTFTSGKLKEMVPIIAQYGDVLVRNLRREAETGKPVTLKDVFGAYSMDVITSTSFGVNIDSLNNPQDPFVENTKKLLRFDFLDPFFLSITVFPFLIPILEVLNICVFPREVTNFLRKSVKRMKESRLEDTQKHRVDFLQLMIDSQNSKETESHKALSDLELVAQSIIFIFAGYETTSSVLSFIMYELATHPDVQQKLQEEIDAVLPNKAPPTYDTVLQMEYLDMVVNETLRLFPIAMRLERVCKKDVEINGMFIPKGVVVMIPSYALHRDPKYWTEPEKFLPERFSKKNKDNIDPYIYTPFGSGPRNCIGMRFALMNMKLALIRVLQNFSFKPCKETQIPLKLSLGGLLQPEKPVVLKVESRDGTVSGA

Which results are given for `CC(=O)O[C@@H]1C[C@@]23C[C@@]24CC[C@H](O[C@@H]2OC[C@@H](O)[C@H](O)[C@H]2O)C(C)(C)[C@@H]4CC[C@H]3[C@]2(C)C[C@@H]3O[C@]4(C[C@@H](C)[C@@H]3[C@@]12C)O[C@H](O)[C@@]1(C)O[C@@H]41` [Compound 11, Actein (R,S)]?
activity against CYP3A4 (in words) [1]: inactive; % inhibition (10 µM) of CYP3A4, class [1]: N/A (N/A, Not active = < 50% inhibition at 10 µM); activity against CYP2D6 (in words) [2]: inactive

With “1-α-hydroxycimigenol-3-O-β-D-xylopyranoside [Compound 21]” as the compound, how does the “% inhibition (10 µM) of CYP3A4, class” value [1] read?
Its value is “N/A (N/A, Not active = < 50% inhibition at 10 µM)”.

For `CC(=O)O[C@H]1[C@H](O[C@H]2CC[C@]34C[C@]35C[C@@H](OC(C)=O)[C@]3(C)[C@H]6[C@H](C)C[C@@]7(O[C@H]6C[C@@]3(C)[C@@H]5CC[C@H]4C2(C)C)O[C@H](O)[C@@]2(C)O[C@@H]72)OC[C@@H](O)[C@@H]1O` [Compound 14, 2’-O-acetyl-Actein], which “% inhibition (10 µM) of CYP3A4, class” value [1] is on record?
Its value is “N/A (N/A, Not active = < 50% inhibition at 10 µM)”.

For “25-anhydrocimigenol-3-O-β-xylopyranoside [Compound 3]”, which “% inhibition (10 µM) of CYP3A4, class” value [1] is on record?
Its value is “N/A (N/A, Not active = < 50% inhibition at 10 µM)”.

With “1-α-hydroxycimigenol-3-O- α-L-arabinopyranoside [Compound 19]” as the compound, how does the “% inhibition (10 µM) of CYP3A4, class” value [1] read?
Its value is “N/A (N/A, Not active = < 50% inhibition at 10 µM)”.

What does the source list for `COc1ccc2c(c1OC)CN(C)CCc1cc3c(cc1C(=O)C2)OCO3` [Allocryptopine, allocryptopine]?
inhibition at 20 min, 10 µM [3]: < 10%; inhibition at 20 min, 10 µM [4]: 16.8 ± 2.8%; inhibition at 20 min, 10 µM [5]: 57.9 ± 4.3%

Which “% inhibition (10 µM) of CYP3A4” value [1] does the source give for “7-β-hydroxycimigenol aglycone [Compound 20]” here?
Its value is 64.9±1.1%.

For `C=C(C)[C@@H]1O[C@@]23O[C@@H]1C[C@@H](C)[C@@H]2[C@@]1(C)[C@H](OC(C)=O)C[C@@]24C[C@@]25CC[C@H](O[C@@H]2OC[C@@H](O)[C@H](O)[C@H]2O)C(C)(C)[C@@H]5CC[C@H]4[C@]1(C)[C@H]3O` [Compound 7, Cimiracemoside K], which “% inhibition (10 µM) of CYP3A4” value [1] is on record?
Its value is 85.2±0.3%.

What about the IC50 [1] of the same compound?
Its IC50 is 3.8 ± 0.5 µM.

With `CN1CCc2cc3c(cc2C(=O)Cc2ccc4c(c2C1)OCO4)OCO3` [Protopine, protopine] as the compound, how does the Ki [2] read?
The Ki was 0.078 µM.

Which “% inhibition (10 µM) of CYP3A4, class” value [1] does the source give for `C[C@H](CC(=O)[C@@H]1OC1(C)C)[C@H]1C(=O)C[C@@]2(C)C3=CC[C@H]4C(C)(C)[C@@H](O[C@@H]5OC[C@@H](O)[C@H](O)[C@H]5O)CC[C@@]45C[C@@]35[C@@H](O)C[C@]12C` [Compound 17, Cimicifugoside H-1] here?
Its value is “N/A (N/A, Not active = < 50% inhibition at 10 µM)”.

Which results are given for `CC(=O)O[C@@H]1CO[C@@H](O[C@H]2CC[C@]34C[C@]35C[C@@H](OC(C)=O)[C@]3(C)[C@H]6[C@H](C)C[C@]7(OC(O)[C@]8(C)O[C@H]78)O[C@H]6C[C@@]3(C)[C@@H]5CC[C@H]4C2(C)C)[C@H](O)[C@H]1O` (stereo partly drawn) [Compound 15, Cimiracemoside O]?
% inhibition (10 µM) of CYP3A4 [1]: 74.8±0.1%; IC50 [1]: 5.1 ± 0.4 µM

Which “% inhibition (10 µM) of CYP3A4, class” value [1] does the source give for “25-O-acetylcimigenol-3-O-α-arabinopyranoside [Compound 9]” here?
Its value is “N/A (N/A, Not active = < 50% inhibition at 10 µM)”.

For `C=C(C)[C@@H]1O[C@@]23O[C@@H]1C[C@@H](C)[C@@H]2[C@@]1(C)[C@H](OC(C)=O)C[C@@]24C[C@@]25CC[C@H](O[C@@H]2OC[C@H](O)[C@H](O)[C@H]2O)C(C)(C)[C@@H]5CC[C@H]4[C@]1(C)[C@H]3O` [Compound 6, Cimiracemoside J], which “% inhibition (10 µM) of CYP3A4, class” value [1] is on record?
Its value is “N/A (N/A, Not active = < 50% inhibition at 10 µM)”.

Which “% inhibition (10 µM) of CYP3A4, class” value [1] does the source give for `CC(=O)O[C@@H]1C[C@@]23C[C@@]24CC[C@H](O[C@@H]2OC[C@H](O)[C@H](O)[C@H]2O)C(C)(C)[C@@H]4CC[C@H]3[C@]2(C)C[C@@H]3O[C@]4(C[C@@H](C)[C@@H]3[C@@]12C)OC[C@]1(C)O[C@H]41` [Compound 13, Cimiracemoside N] here?
Its value is “N/A (N/A, Not active = < 50% inhibition at 10 µM)”.

With “25-anhydrocimigenol-3-O-β-arabinopyranoside [Compound 10]” as the compound, how does the “% inhibition (10 µM) of CYP3A4, class” value [1] read?
The value was “N/A (N/A, Not active = < 50% inhibition at 10 µM)”.

With `CC(=O)O[C@@H]1C[C@@]23C[C@@]24CC[C@H](O[C@@H]2OC[C@@H](O)[C@H](O)[C@H]2O)C(C)(C)[C@@H]4CC[C@H]3[C@]2(C)C[C@@H]3O[C@]4(C[C@@H](C)[C@@H]3[C@@]12C)OC[C@@]1(C)O[C@@H]41` [Compound 4, 26-deoxyactein] as the compound, how does the “activity against CYP3A4 (in words)” value [1] read?
Its value is “inactive”.

What about the “% inhibition (10 µM) of CYP3A4, class” value [1] of the same compound?
Its value is “N/A (N/A, Not active = < 50% inhibition at 10 µM)”.

And the “activity against CYP2D6 (in words)” value [2]?
The value was “inactive”.

With `CC(=O)O[C@@H]1C[C@@]23C[C@@]24CC[C@H](O[C@@H]2OC[C@@H](O)[C@H](O)[C@H]2O)C(C)(C)[C@@H]4CC[C@H]3[C@]2(C)C[C@@H]3O[C@@]4(C[C@@H](C)[C@@H]3[C@@]12C)OC[C@@]1(C)O[C@@H]41` [Compound 1, 23-epi-26-deoxyactein] as the compound, how does the “activity against CYP3A4 (in words)” value [1] read?
Its value is “inactive”.

And the “activity against CYP2D6 (in words)” value [2]?
The value was “inactive”.

With `CC(=O)O[C@H]1CO[C@@H](O[C@H]2CC[C@]34C[C@]35CC[C@]3(C)[C@@H]([C@H](C)C[C@@H](OC(C)=O)[C@@H]6OC6(C)C)C(=O)[C@H](O)[C@@]3(C)[C@@H]5CC[C@H]4C2(C)C)[C@H](O)[C@H]1O` [Compound 16, Cimiracemoside L] as the compound, how does the “% inhibition (10 µM) of CYP3A4” value [1] read?
Its value is 94.2±0.3%.

What about the IC50 [1] of the same compound?
The IC50 was 2.4 ± 0.2 µM.

With “25-O-acetyl-7-β-hydroxycimigenol-3-O-β-xylopyranoside [Compound 22]” as the compound, how does the “% inhibition (10 µM) of CYP3A4” value [1] read?
Its value is 61.8±0.2%.

For “23-O-acetylshengmanol-3-β-D-xylopyranoside [Compound 12]”, which “CYP3A4 inhibition (in words)” value [6] is on record?
Its value is “weak inhibitor”.

For `CC(=O)O[C@@H]1C[C@@]23C[C@@]24CC[C@H](O[C@@H]2OC[C@@H](O)[C@H](O)[C@H]2O)C(C)(C)[C@@H]4CC[C@H]3[C@]2(C)C[C@@H]3O[C@]4(C[C@@H](C)[C@@H]3[C@@]12C)OC(=O)[C@]1(C)O[C@H]41` [Compound 5, Cimiracemoside P], which “% inhibition (10 µM) of CYP3A4, class” value [1] is on record?
Its value is “N/A (N/A, Not active = < 50% inhibition at 10 µM)”.

Which “% inhibition (10 µM) of CYP3A4, class” value [1] does the source give for “25-O-acetylcimigenol-3-O-β-xylopyranoside [Compound 8]” here?
Its value is “N/A (N/A, Not active = < 50% inhibition at 10 µM)”.

Source: paper PMC3565011 (Xenobiotica; the fate of foreign compounds in biological …, 2011)
